This is an account of results in ChEMBL document CHEMBL1133932, “Synthesis and biological evaluation of L- and D-configurations of 2',3'-dideoxy-4'-C-methyl-3'-oxacytidine analogues” (Bioorg Med Chem Lett, 2001).

What all share (assay type): functional, cell-based
Assay [1] relates to L1210. Kind of assay: In vitro inhibition of L1210 leukemia cell replication by the compound. As to conditions: Mus musculus.
The subject of another assay is P388. Briefly: In vitro inhibition of P388 leukemia cell replication by the compound. As to conditions: Mus musculus.
The next assay deals with B16-F10. Kind of assay: In vitro inhibition of B16F10 melanoma cell replication by the compound. As to conditions: Mus musculus.
Another assay concerns CCRF-CEM. Briefly: In vitro inhibition of CCRF-CEM lymphoblastic leukemia cell replication by the compound. As to conditions: Homo sapiens.
The test system of assay [2] is L1210. Briefly: In vitro inhibition of L1210 leukemia cell replication by the compound at. The conditions noted are these: Mus musculus.

SMILES strings stand for the structures. pIC50: −log10 of the molar value.

For the molecule `C[C@]1(CO)OCC(n2cc(F)c(N)nc2=O)O1` (some centres not stated), the pIC50 in the assay on L1210 [1], with P388, with B16-F10 and in the assay with CCRF-CEM was less than 4.00 each time.

For the molecule `CC1(CO)OCC(n2ccc(N)nc2=O)O1` (configuration not stated), the pIC50 (as a rule, the negative decadic logarithm of the IC50, by convention in mol/L) in the assay with L1210 [1] was 4.30; in the assay on P388, 5.00; in the assay on B16-F10, 4.00; with CCRF-CEM, 4.52.

On to `CC1(CO)OC[C@@H](n2cc(F)c(N)nc2=O)O1` (some centres not stated), for which the pIC50 with L1210 [1], in the assay with P388, in the assay with B16-F10 and in the assay on CCRF-CEM was less than 4.00 each time.

Consider `CC1(CO)OCC(n2cc(F)c(N)nc2=O)O1` (configuration not stated), for which the negative-log IC50 (pIC50) with P388, in the assay on B16-F10, in the assay with L1210 [2] and in the assay with CCRF-CEM was less than 4.00 throughout.

Turning to `CC1(CO)OC[C@@H](n2ccc(N)nc2=O)O1` (some centres not stated), the pIC50 in the assay with L1210 [1], in the assay on P388, in the assay with B16-F10 and with CCRF-CEM was less than 4.00 throughout.

Turning to `C[C@]1(CO)OCC(n2ccc(N)nc2=O)O1` (some centres not stated), the pIC50 with L1210 [1] is less than 4.00; in the assay with P388, less than 4.00; with B16-F10 it was 4.00; in the assay with CCRF-CEM it was less than 4.00.

For `C[C@]1(CO)OCC(n2ccc(N)nc2=O)O1` (single isomer, unassigned), the negative logarithm of the IC50 (pIC50) was 4.35 with L1210 [1], 5.30 in the assay on P388, 4.00 with B16-F10 and 4.52 in the assay on CCRF-CEM.

For the molecule `C[C@]1(CO)OCC(n2cc(F)c(N)nc2=O)O1` (single isomer, unassigned), the pIC50 in the assay with L1210 [1] was less than 4.00; in the assay with P388, 4.30; with B16-F10 it was less than 4.00; in the assay on CCRF-CEM it was less than 4.00.
